US20220079915A1, “IMMUNOSUPPRESSIVE PHARMACEUTICAL COMPOSITION AND APPLICATION THEREOF” (Shanghai Archeus Biotech Co., Ltd., priority 2018, published 2022)

Legend:
[1] = test system: mouse psoriasis model induced by Imiquimod; assay: Mouse psoriasis model induced with imiquimod; type: in vivo; conditions: for relieving of inflammatory thickening of the model right ear: end point of 7-day administration
Procedure: Animal strain: 28 male BALB/c mice, 6-8 weeks old, SPF environment, 12 hours light and dark cycle, 24-26 degrees Celsius. Blank group: no treatment, n=3; […] High-dose compound test group: 3.5 mg/kg drug intraperitoneal injection+5% imiquimod ointment, n=5; Low-dose compound test group: 0.8 mg/kg drug intraperitoneal injection+5% imiquimod ointment, n=5; Combined drugs test group: 0.8 mg/kg drug intraperitoneal injection+0.0025% PGE2 (administered epidermally in 75% ethanol)+5% imiquimod ointment, n=5; Day 0: anesthetized the mouse, shaved the back with an area about 2*3 cm; Day1-7: every other day, measured the mouse body weight, left and right ear thickness, and observed the skin to obtain a score; Day7: killed the mouse, sampled the back skin and fixed in 4% PFA solution for H&E staining; Model Group Induced with Imiquimod: Day 0: anesthetized the mouse, shaved the back with an area about 2*3 cm; Day1-7: every other day, measured the mouse body weight, left and right ear thickness, and observed the skin to obtain a score; […] Massaged moderately against the direction of the hair to help absorption; Day1-7: […] Massaged moderately against the direction of the hair to help absorption; Day7: killed the mouse, sampled the back skin and fixed in 4% PFA solution for H&E staining; Day 0: anesthetized the mouse, shaved the back with an area about 2*3 cm; Day1-7: every other day, measured the mouse body weight, left and right ear thickness, and observed the skin to obtain a score; […] Day1-7: then injected intraperitoneally 3.5 mg/kg in 200 μL sterile DPBS; Day1-7: then applied 62.5 mg of imiquimod ointment on the shaved area on the back of each mouse, applied 250 μg of imiquimod ointment on the inside and outside of the right ear, and massaged moderately against the direction of hair to help absorption; Day7: killed the mouse, sampled the back skin and fixed in 4% PFA solution for H&E staining; Day 0: anesthetized the mouse, shaved the back with an area about 2*3 cm; Day1-7: every other day, measured the mouse body weight, left and right ear thickness, and observed the skin to obtain a score; […] Day1-7: then injected intraperitoneally 0.8 mg/kg in 200 μL sterile DPBS; Day1-7: then applied 62.5 mg of imiquimod ointment on the shaved area on the back of each mouse, applied 250 μg of imiquimod ointment on the inside and outside of the right ear, and massaged moderately against the direction of hair to help absorption; Day7: killed the mouse, sampled the back skin and fixed in 4% PFA solution for H&E staining; Group Treated with Compound in Combination with PGE2: Day 0: anesthetized the mouse, shaved the back with an area about 2*3 cm; Day1-7: every other day, measured the mouse body weight, left and right ear thickness, and observed the skin to obtain a score; Day1-7: […] Day-7: then injected intraperitoneally 0.8 mg/kg in 200 μL sterile DPBS; Day1-7: one hour after PGE2 administration, applied 62.5 mg of imiquimod ointment on the shaved area on the back of each mouse, and applied 250 μg of imiquimod ointment on the inside and outside of the right ear. […] The area was fixed in the disease model and was not considered, and the other three aspects were quantified as follows: 0=asymptomatic, 1=mild, 2=moderate, 3=significant, 4=very significant; Changes of the thickening of the ear; Body weight; Skin histological changes (H&E staining).

THP-1 cells = assay: THP-1 cell viability assay (MTT); type: cell-based, human; conditions: groups with or without the compound; FIG. 3
Procedure: 1) Recoveried and expanded THP-1 cells in a T75 culture flask. The growth medium was 10 milliliters of 10% fetal bovine serun/RPMI1640 (already containing 2 mM glutamine)/1% double antibiotics in each flask. […]

[2] = high-dose group 3.5 mg/kg intraperitoneal
[3] = low-dose group 0.8 mg/kg intraperitoneal

`C=C[C@@]1(C)CC(=O)C2(O)[C@@]3(C)C(O)CCC(C)(C)C3[C@H](OC(=O)CCN(C)C)[C@H](OC(C)=O)[C@@]2(C)O1.Cl` (stereo partly drawn) [6-[3-(dimethylamino)propionyl]forskolin hydrochloride] was tested, and the “thickness of epidermis and stratum corneum of back skin (H&E staining)” value ([1]; day 7, compared with the model group, FIG. 20) was “different degrees of thickness reduction”, the “day of administration on which disease alleviation showed (back skin psoriasis-like index score)” value [1, 2] was 3 days and the “relieving of inflammatory thickening of the model right ear” value [1, 2] was 39%. For the same compound, the “day of administration on which the effect began (back skin psoriasis-like index score)” value [1, 3] was 5 days, the “relieving of inflammatory thickening of the model right ear” value [1, 3] was 30% and the cell viability (THP-1 cells) was “no significant difference”.
